From US20230183237A1, “COMPETITIVE AND NONCOMPETITIVE INHIBITORS OF THE MUSCARINIC ACETYLCHOLINE RECEPTOR M5” (Vanderbilt University, priority 2020, published 2023)

What follows are molecules tested against T1, hM5 (Homo sapiens, UniProt P08912) (assay: Calcium mobilization concentration-response (IC50 vs EC80 acetylcholine), CHO hM5). Details: CELL LINE hM5; calcium mobilization, EC80 acetylcholine addition; read-out: IC50.
T1 construct: expressed in transfected cells
T1 sequence (P08912 1-532): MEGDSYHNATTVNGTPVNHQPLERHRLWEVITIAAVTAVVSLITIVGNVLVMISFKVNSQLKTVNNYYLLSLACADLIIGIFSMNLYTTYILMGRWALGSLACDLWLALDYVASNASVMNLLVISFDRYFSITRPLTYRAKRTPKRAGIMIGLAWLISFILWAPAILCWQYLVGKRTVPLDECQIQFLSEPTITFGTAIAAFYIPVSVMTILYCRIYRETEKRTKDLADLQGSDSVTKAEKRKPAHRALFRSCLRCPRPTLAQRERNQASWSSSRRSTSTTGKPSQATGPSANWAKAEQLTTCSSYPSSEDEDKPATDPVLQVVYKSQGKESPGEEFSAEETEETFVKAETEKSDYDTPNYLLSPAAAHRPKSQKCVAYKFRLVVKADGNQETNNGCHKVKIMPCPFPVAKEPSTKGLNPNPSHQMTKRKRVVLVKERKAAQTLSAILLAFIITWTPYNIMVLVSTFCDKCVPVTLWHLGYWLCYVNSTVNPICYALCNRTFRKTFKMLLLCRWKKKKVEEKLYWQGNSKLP
Format: cell-based
How it was run: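 IC50 values derive from percent maximal acetylcholine response after an EC80 ACh addition, measured as kinetic calcium fluorescence (static ratio, max−min). Test compounds were added 140 s before agonist. Cells: stable hM5-CHO in HEPES-buffered HBSS with 2.5 mM probenecid, pH 7.4; ≥3 independent triplicate determinations.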

Going from `Cc1cc2nccn2nc1C1CCN(S(=O)(=O)c2cnn(C)c2C)CC1` [Compound 251, 6-(1-((1,5-dimethyl-1H-pyrazol-4-yl)sulfonyl)piperidin-4-yl)-7-methylimidazo[1,2-b]pyridazine] to `Cc1cc2nccn2nc1C1CCN(S(=O)(=O)c2ccc3c(c2)N(C)CCO3)CC1` [Compound 250, 4-methyl-6-((4-(7-methylimidazo[1,2-b]pyridazin-6-yl)piperidin-1-yl)sulfonyl)-3,4-dihydro-2H-benzo[b][1,4]oxazine], the IC50 rises from 34 nM to 1500 nM (44-fold).

Going from `Cc1cc2c(cc1S(=O)(=O)N1CCC(c3cc(C)c4ncnn4c3)CC1)C(C)CO2` (centres unmarked) [Compound 86, 6-(1-((3,6-dimethyl-2,3-dihydrobenzofuran-5-yl)sulfonyl)piperidin-4-yl)-8-methyl-[1,2,4]triazolo[1,5-a]pyridine] to `COc1cc2ncnn2cc1C1CCN(S(=O)(=O)c2cn(C)nc2C)CC1` [Compound 83, 6-(1-((1,3-dimethyl-1H-pyrazol-4-yl)sulfonyl)piperidin-4-yl)-7-methoxy-[1,2,4]triazolo[1,5-a]pyridine], the IC50 rises from 9200 nM to greater than 10000 nM.

Compared with `CCc1cc2ncnn2cc1C1CCN(S(=O)(=O)c2cnc3n2CCCC3)CC1` [Compound 335, 7-ethyl-6-(1-((5,6,7,8-tetrahydroimidazo[1,2-a]pyridin-3-yl)sulfonyl)piperidin-4-yl)-[1,2,4]triazolo[1,5-a]pyridine], `O=S(=O)(c1cnn2c1CCCC2)N1CCC(c2cn3ncnc3cc2F)CC1` [Compound 237, 7-fluoro-6-(1-((4,5,6,7-tetrahydropyrazolo[1,5-a]pyridin-3-yl)sulfonyl)piperidin-4-yl)-[1,2,4]triazolo[1,5-a]pyridine] is 2.5-fold lower in IC50: 83 nM for the first, 33 nM for the second.

Going from `Cc1cc2c(cc1C1CCN(S(=O)(=O)c3cnn4c3CCC4)CC1)OCO2` [Compound 374, 3-((4-(6-methylbenzo[d][1,3]dioxol-5-yl)piperidin-1-yl)sulfonyl)-5,6-dihydro-4H-pyrrolo[1,2-b]pyrazole] to `[2H]C1([2H])Oc2cc(C)c(C3CCN(S(=O)(=O)c4cnn5c4OCCC5)CC3)cc2OC1([2H])[2H]` [Compound 393, 3-((4-(7-methyl-2,3-dihydrobenzo[b][1,4]dioxin-6-yl-2,2,3,3-d4)piperidin-1-yl)sulfonyl)-6,7-dihydro-5H-pyrazolo[5,1-b][1,3]oxazine], the IC50 rises from 7 nM to 86 nM (12-fold).

Compared with `Cc1cc(C#N)cnc1C1=CCN(S(=O)(=O)c2cnn(C)c2C)CC1` [Compound 209, 1′-((1,5-dimethyl-1H-pyrazol-4-yl)sulfonyl)-3-methyl-1′,2′,3′,6′-tetrahydro-[2,4′-bipyridine]-5-carbonitrile], `Cc1c(S(=O)(=O)N2CC=C(c3cn4ncnc4c(F)c3Cl)CC2)cnn1C` [Compound 381, 7-chloro-6-(1-((1,5-dimethyl-1H-pyrazol-4-yl)sulfonyl)-1,2,3,6-tetrahydropyridin-4-yl)-8-fluoro-[1,2,4]triazolo[1,5-a]pyridine] is lower in IC50: greater than 10000 nM for the first, 13 nM for the second. The second is the more potent here.

`Cc1nc2cc(C)c(C3CCN(S(=O)(=O)c4cc5c(cc4F)OCC5)CC3)cn2n1` [Compound 77, 6-(1-((6-fluoro-2,3-dihydrobenzofuran-5-yl)sulfonyl)piperidin-4-yl)-2,7-dimethyl-[1,2,4]triazolo[1,5-a]pyridine] and `COc1cc2ncnn2cc1C1CCN(S(=O)(=O)c2ccc3c(c2)CCO3)CC1` [Compound 80, 6-(1-((2,3-dihydrobenzofuran-5-yl)sulfonyl)piperidin-4-yl)-7-methoxy-[1,2,4]triazolo[1,5-a]pyridine] cannot be ordered by IC50: greater than 10000 nM for the first, greater than 10000 nM for the second.

First: Cc1c(S(=O)(=O)N2CCC(c3ccncc3)CC2)cnn1C [Compound 365, 4-(1-((1,5-dimethyl-1H-pyrazol-4-yl)sulfonyl)piperidin-4-yl)pyridine]
Second: Cc1c(S(=O)(=O)N2CCC(c3ccc4c(c3)OCO4)CC2)cnn1C [Compound 356, 4-(benzo[d][1,3]dioxol-5-yl)-1-((1,5-dimethyl-1H-pyrazol-4-yl)sulfonyl)piperidine]
The IC50 of the first is higher: greater than 10000 nM for the first, 306 nM for the second. The second is the more potent here.

First: Cc1c(C2CCN(S(=O)(=O)c3cnn(C(F)F)c3C)CC2)cn2ncnc2c1F [Compound 269, 6-(1-((1-(difluoromethyl)-5-methyl-1H-pyrazol-4-yl)sulfonyl)piperidin-4-yl)-8-fluoro-7-methyl-[1,2,4]triazolo[1,5-a]pyridine]
Second: Cn1ncc(S(=O)(=O)N2CCC(c3cn4ncnc4cc3Cl)CC2)c1C(F)F [Compound 295, 7-chloro-6-(1-((5-(difluoromethyl)-1-methyl-1H-pyrazol-4-yl)sulfonyl)piperidin-4-yl)-[1,2,4]triazolo[1,5-a]pyridine]
The IC50 of the first is 17-fold higher: 326 nM for the first, 19 nM for the second.

First: O=S(=O)(c1ccc(Cl)nc1)N1CCC(c2cc3cc[nH]c3cn2)CC1 [Compound 94, 5-(1-((6-chloropyridin-3-yl)sulfonyl)piperidin-4-yl)-1H-pyrrolo[2,3-c]pyridine]
Second: [2H]C([2H])([2H])n1cc(S(=O)(=O)N2CCC(c3cn4ncnc4cc3C)CC2)c(Cl)n1 [Compound 256, 6-(1-((3-chloro-1-(methyl-d3)-1H-pyrazol-4-yl)sulfonyl)piperidin-4-yl)-7-methyl-[1,2,4]triazolo[1,5-a]pyridine]
The IC50 of the first is higher: greater than 10000 nM for the first, 53 nM for the second. The second is the more potent here.

Going from `O=S(=O)(c1c(Cl)nc2sccn12)N1CCC(c2cn3ncnc3cc2C(F)(F)F)CC1` [Compound 340, 6-chloro-5-((4-(7-(trifluoromethyl)-[1,2,4]triazoto[1,5-a]pyridin-6-yl)piperidin-1-yl)sulfonyl)imidazo[2,1-b]thiazole] to `[2H]C1([2H])Oc2cc(C)c(C3CCN(S(=O)(=O)c4cnc(C)s4)CC3)cc2OC1([2H])[2H]` [Compound 392, 2-methyl-5-((4-(7-methyl-2,3-dihydrobenzo[b][1,4]dioxin-6-yl-2,2,3,3-d4)piperidin-1-yl)sulfonyl)thiazole], the IC50 rises from 173 nM to greater than 10000 nM.

Compared with `Cc1cc(C#N)ncc1C1=CCN(S(=O)(=O)c2ccc3c(c2)CCO3)CC1` [Compound 240, 1′-((2,3-dihydrobenzofuran-5-yl)sulfonyl)-4-methyl-1′,2′,3′,6-tetrahydro-[3,4′-bipyridine]-6-carbonitrile], `Cc1c(S(=O)(=O)N2CC=C(c3cc4c(cc3Cl)OCO4)CC2)cnn1C` [Compound 350, 4-(6-chlorobenzo[d][1,3]dioxol-5-yl)-1-((1,5-dimethyl-1H-pyrazol-4-yl)sulfonyl)-1,2,3,6-tetrahydropyridine] is lower in IC50: greater than 10000 nM for the first, 11 nM for the second.

Same assay, conditions: CELL LINE hM5; vs EC80 acetylcholine; read-out: IC50

First: Cn1ncc(S(=O)(=O)N2CCC(c3cn4ncnc4cc3C(F)(F)F)CC2)c1CC#N [Compound 410, 2-(1-methyl-4-((4-(7-(trifluoromethyl)-[1,2,4]triazolo[1,5-a]pyridin-6-yl)piperidin-1-yl)sulfonyl)-1H-pyrazol-5-yl)acetonitrile]
Second: [2H]C([2H])([2H])Oc1c(S(=O)(=O)N2CCC(c3cn4ncnc4cc3C(F)(F)F)CC2)cnn1C [Compound 615, 6-(1-((5-(methoxy-d3)-1-methyl-1H-pyrazol-4-yl)sulfonyl)piperidin-4-yl)-7-(trifluoromethyl)-[1,2,4]triazoto[1,5-a]pyridine]
The IC50 of the first is 1.8-fold higher: 204 nM for the first, 114 nM for the second.

Compared with `Cn1ncc(S(=O)(=O)N2CCC(c3c(C(F)(F)F)nc4n3CCCC4)CC2)c1Cl` [Compound 555, 3-(1-((5-chloro-1-methyl-1H-pyrazol-4-yl)sulfonyl)piperidin-4-yl)-2-(trifluoromethyl)-5,6,7,8-tetrahydroimidazo[1,2-a]pyridine], `Cc1cc(C(F)(F)F)ncc1C1CCN(S(=O)(=O)c2cnn3c2OCCC3)CC1` [Compound 398, 3-((4-(4-methyl-6-(trifluoromethyl)pyridin-3-yl)piperidin-1-yl)sulfonyl)-6,7-dihydro-5H-pyrazolo[5,1-b][1,3]oxazine] is lower in IC50: greater than 10000 nM for the first, 6310 nM for the second.

Going from `Cn1cc(S(=O)(=O)N2CCC(c3cn4ncnc4cc3C(F)(F)F)CC2)nn1` [Compound 563, 6-(1-((1-methyl-1H-1,2,3-triazol-4-yl)sulfonyl)piperidin-4-yl)-7-(trifluoromethyl)-[1,2,4]triazolo[1,5-a]pyridine] to `Cc1c(C2CCN(S(=O)(=O)c3cnc(Cl)s3)CC2)cn2ncnc2c1F` [Compound 534, 2-chloro-5-((4-(8-fluoro-7-methyl-[1,2,4]triazolo[1,5-a]pyridin-6-yl)piperidin-1-yl)sulfonyl)thiazole], the IC50 rises from 234 nM to 1650 nM (7.1-fold).

Compared with `Cc1ncc(S(=O)(=O)N2CCC(c3c4c(nn3C)CCCC4)CC2)s1` [Compound 593, 2-methyl-5-((4-(2-methyl-4,5,6,7-tetrahydro-2H-indazol-3-yl)piperidin-1-yl)sulfonyl)thiazole], `Cc1cc2nccnc2cc1C1CCN(S(=O)(=O)c2cnn3c2OCCC3)CC1` [Compound 426, 3-((4-(7-methylquinoxalin-6-yl)piperidin-1-yl)sulfonyl)-6,7-dihydro-5H-pyrazolo[5,1-b][1,3]oxazine] is lower in IC50: greater than 10000 nM for the first, 26 nM for the second. The second is the more potent here.

Compared with `[2H]c1nc2cc(Cl)c(C3=CCN(S(=O)(=O)c4cnc(C)o4)CC3)cn2n1` [Compound 610, 5-((4-(7-chloro-[1,2,4]triazolo[1,5-a]pyridin-6-yl-2-d)-3,6-dihydropyridin-1(2H)-yl)sulfonyl)-2-methyloxazole], `Cc1cc2nccn2nc1N1CCN(S(=O)(=O)c2cnn3c2CCC3)CC1` [Compound 435, 6-(4-((5,6-dihydro-4H-pyrrolo[1,2-b]pyrazol-3-yl)sulfonyl)piperazin-1-yl)-7-methylimidazo[1,2-b]pyridazine] is 1.8-fold lower in IC50: 40 nM for the first, 22 nM for the second.
